Assay results reported in PubChem BioAssay AID179 (DTP/NCI, 2004).
Several values for one entry are separate records, joined by “and”; a condition that tells them apart may be missing. Identical values can stand only once. Activity calls are given as the source filed them.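 The calls were made as follows: active = compounds giving half or more protection of infected cells from virus-caused growth loss, again on retest; inactive = the rest.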

Test system: CEM cells HIV-1 protection, formazan growth assay
Experiment: NCI AIDS Antiviral Assay
Conditions: for IC50: measured here: growth of uninfected CEM cells
Summary of the method: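 Protection of CEM cells against HIV-1 measured as cell growth via soluble formazan read-out, with five concentrations tested on both infected and uninfected cells; failure to protect may reflect toxicity.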

SMILES | EC50 | IC50 | outcome
CC(C)=CC1CCc2ccccc2N1S(=O)(=O)c1ccc(C)cc1 (stereo not given) | > 25.1 µM | 1.32 µM | 
CC1(C)O[C@H]2[C@H](O)C[C@](O)(CO)C[C@H]2O1 |  |  | inactive
c1csc(-c2ccc(-c3ccc(-c4ccc(-c5cccs5)s4)s3)s2)c1 | > 200 µM | > 200 µM | 
Cn1ccnc1.Cn1ccnc1.NCCN.[Cl-].[Pt+4] | > 200 µM | > 200 µM | 
O=C(Nc1ccc(Cl)cc1)C1C(=O)C(=O)N(c2ccc(Cl)cc2)C1=O (stereo not given) |  |  | inactive
CCC1(c2ccccc2)NC(=O)N(C)C1=O (stereo not given) | > 200 µM | > 200 µM | 
FC(F)(F)C1(C(F)(F)F)OC(Cl)(Cl)C(Cl)(Cl)O1 | > 200 µM | > 200 µM | 
CC1(C)OC(=S)N(c2ccccc2)C12C=Cc1ccccc1O2 (stereo not given) | > 200 µM | 35.5 µM | 
COc1ccc2c(c1)C(=O)CC(C(=O)O)C2 (stereo not given) | > 1120 µM | > 1120 µM | 
COc1ccc(CC(CO)NC(=O)OCc2ccccc2)cc1Oc1ccc(CC(CO)NC(=O)OCc2ccccc2)cc1 (stereo not given) | > 200 µM | 10 µM | 
Cc1ccccc1-n1c(=S)n(-c2ccc(Cl)cc2)c2nc3ccccc3nc1/c2=N/Nc1cc(Cl)ccc1Cl | > 200 µM | 174 µM | 
CC1OC(OCC2OC(Oc3c(-c4ccc(O)cc4)oc4cc(OC5OC(C)C(O)C(O)C5O)cc(O)c4c3=O)C(O)C(O)C2O)C(O)C(O)C1O (stereo not given) |  |  | active
O=[N+]([O-])c1ccc2cnn(C[N+]34CN5CN(CN(C5)C3)C4)c2c1 |  |  | inactive
COc1ccc(N2NC(c3ccccc3)(c3ccccc3)C(C)C2=O)cc1 (stereo not given) | > 200 µM | 11 µM | 
C=C1C[C@H]2[C@@H]3C=C(C)C4=CC(=O)CC[C@]4(C)[C@H]3CC[C@]2(C)[C@@]1(OC(C)=O)C(C)=O | > 200 µM | 28.2 µM | 
C1CC(C2OCOC3COCOC32)OO1 (stereo not given) | > 200 µM | > 200 µM | 
CC1CN(c2ccc(Cl)cc2)CC(C)(C)OC(=O)O1 (stereo not given) | > 331 µM | 21.4 µM | 
COC(=O)[C@H]1C[C@H]1NC(=O)C(CC(=O)OCc1ccccc1)NC(=O)OCc1ccccc1 (stereo not given in full) | > 200 µM | 79.4 µM | 

SMILES | EC50 | IC50 | outcome
c1ccc2c(c1)[nH]c1cnc3c4ncccc4[nH]c3c12 |  |  | inactive
CCN1CC(C)Cn2c(=S)[nH]c3cc(Br)cc1c32 (stereo not given) | 5.01 µM | 138 µM | 
Cn1c(=O)c2nccnc2n(C)c1=O | 178 µM | > 200 µM | 
COc1cc(C2c3cc4c(cc3C(O)C3CCC(=O)N23)OCO4)cc(OC)c1OC (stereo not given) | > 200 µM | 18.6 µM | 
O=C1Nc2nc(=O)nc3[nH]c(=O)nc(n23)N1 | > 251 µM | > 251 µM | 
O=C1c2ccccc2C(=O)N1/N=C\c1ccc(O)cc1 | > 135 µM | > 135 µM | 
COc1cc2c(cc1OC)C(c1ccc(N=Cc3ccc(N(C)C)cc3)cc1)N(C(=S)Nc1cc(Cl)ccc1Cl)CC2 (stereo not given) |  |  | inactive
Cc1cn(CC2COC(CO)O2)c(=O)[nH]c1=O (stereo not given) | > 1020 µM | > 1020 µM | 
COc1cc(Br)c2nsnc2c1 | > 29.5 µM | > 29.5 µM | 
O=C1NC(=O)C2(CC2)C(=O)N1 | > 200 µM | 13.2 µM | 
O=C(OC1C#CCSCC#C/C=C\1)c1cnc2ccccc2n1 (stereo not given) | > 200 µM | 33.1 µM | 
Cc1cc2c(cc1Cl)S(=O)(=O)OC(c1ccc([N+](=O)[O-])cc1)=N2 | > 200 µM | 115 µM | 
CCCN(CCC)C(=O)c1nc(N)nc(-c2ccc(OC)cc2)c1-c1ccc(OC)cc1 | > 16.6 µM | > 16.6 µM | 
O=C1CSC(c2cccc(Cl)c2)N1c1ccc(-c2ccc(-n3c(-c4ccccc4)nc4ccccc4c3=O)cc2)cc1 (stereo not given) | > 200 µM | 21.9 µM | 
CC1=C[P+](Cc2ccccc2)(c2ccccc2)CC1 (stereo not given) |  | 186 µM and 72.4 µM | 
OC(C/C(=N\N=C(/CC(O)(C(F)(F)F)C(F)(F)F)c1ccccc1)c1ccccc1)(C(F)(F)F)C(F)(F)F | > 200 µM | > 200 µM | 
CC(C)=CCc1c(O)cc(O)c2c1OC(c1ccc(O)cc1)C(O)C2=O (stereo not given) | > 363 µM | 17.8 µM | 
CC(=O)n1nnc2ccc([N+](=O)[O-])cc21 | > 34.7 µM | > 34.7 µM | 
